In patent US20040092402A1, “Pyrimidine derivatives and herbicides containing the same” (priority 2000, published 2004) one finds melting point data, which are given here for 34 compounds.

Structures are written as SMILES. Where “and” joins values, the source holds several entries; their conditions need not be identical. Equal entries are not always repeated.

On to `CCS(=O)(=O)Nc1cc(-c2ncnc(C(F)F)c2Cl)c(F)cc1C#N` [D-26, 5-Chloro-4-[4-cyano-5-(ethylsulfonylamino)-2-fluoro-phenyl]-6-difluoromethylpyrimidine], for which the melting point lay in the range of 200 to 202 °C.
Consider `COC(=O)c1cc(-c2ncnc(C)c2C#N)c(F)cc1Cl` [K-19, Methyl 2-chloro-5-(5-cyano-6-methylpyrimidin-4-yl)-4-fluorobenzoate], for which the melting point lay in the range of 142 to 144 °C.
`CCS(=O)(=O)N(C(C)=O)c1cc(-c2ncnc(C(F)F)c2Cl)c(F)cc1C#N` [D-27, 4-[5-(N-acetyl-N-ethylsulfonylamino)-4-cyano-2-fluorophenyl]-5-chloro-6-difluoromethylpyrimidine] showed a melting point of 121 to 122 °C.
`C#CCOc1cc(-c2ncnc(C)c2C)c(F)cc1Cl` [J-3, 4-(4-Chloro-2-fluoro-5-propargyloxyphenyl)-5,6-dimethyl pyrimidine] had a melting point of 131 to 133 °C.
In turn, `COc1cc(-c2ncnc(OC)c2C=O)c(F)cc1Cl` [L-1, 4-(4-Chloro-2-fluoro-5-methoxyphenyl)-5-formyl-6-methoxypyrimidine] returned a melting point of 161 to 163 °C.
With `COc1ncnc(-c2cc(NS(C)(=O)=O)c(C#N)cc2F)c1C` [J-16, 4-(4-cyano-5-methylsulfonylamino-2-fluorophenyl)-6-methoxy-5-methylpyrimidine], the melting point fell in the range of 218 to 220 °C.
`C#CCOc1cc(-c2ncnc(C(F)(F)F)c2C)c(F)cc1Cl` [J-7, 4-(4-Chloro-2-fluoro-5-propargyloxyphenyl)-5-methyl-6-trifluoromethylpyrimidine]: the melting point is 90 to 92 °C.
As for `CCS(=O)(=O)Nc1cc(-c2ncnc(C(F)(F)F)c2Cl)c(F)cc1C#N` [A-16, 5-chloro-4-[4-cyano-5-(N-ethanesulfonylamino)-2-fluorophenyl]-6-trifluoromethylpyrimidine], the melting point was 188 to 189 °C and 191 to 194 °C.
In turn, `CCS(=O)(=O)Nc1cc(-c2ncnc(NOC)c2Cl)c(F)cc1C#N` [H-27, 5-Chloro-4-[4-cyano-5-(ethylsulfonylamino)-2-fluoro-phenyl]-6-methoxyaminopyrimidine] displayed a melting point of 188 to 189 °C.
For `CC(C)NS(=O)(=O)c1cc(-c2ncnc(C(F)F)c2Cl)c(F)cc1Cl` [D-50, 2-Chloro-5-(5-chloro-6-difluoromethylpyrimidin-4-yl)-4-fluoro-N-isopropylbenzenesulfonamide], the melting point lay in the range of 172 to 175 °C.
On to `COc1ncnc(-c2cc(NS(C)(=O)=O)c(Cl)cc2Cl)c1C#N` [K-20, 4-(2,4-Dichloro-5-methylsulfonylaminophenyl)-5-cyano-6-methoxypyrimidine], for which the melting point lay in the range of 160 to 162 °C.
As to `C#CCOc1cc(-c2ncnc(C(Cl)Cl)c2Cl)c(F)cc1Cl` [E-19, 5-Chloro-4-(4-chloro-2-fluoro-5-propargyloxyphenyl)-6-dichloromethylpyrimidine], the melting point lay within 86 to 88 °C.
The figure for `CCS(=O)(=O)Nc1cc(-c2ncnc(C(F)F)c2Cl)c(Cl)cc1Cl` [D-16, 5-Chloro-4-(2,4-dichloro-5-ethylsulfonylaminophenyl)-6-difluoromethylpyrimidine] is 140 to 142 °C.
`Cc1ncnc(-c2ccc(Cl)cc2F)c1Cl` [E-1, 4-(4-Chloro-2-fluorophenyl)-5-chloro-6-methyl-pyrimidine] displayed a melting point of 77 to 79 °C.
Compound `CCS(=O)(=O)Nc1cc(-c2ncnc(C(C)C)c2Cl)c(F)cc1C#N` [E-13, 5-Chloro-4-[4-cyano-5-(ethylsulfonylamino)-2-fluoro-phenyl]-6-isopropylpyrimidine] had a melting point of 160 to 162 °C.
For `COc1cc(-c2ncnc(OC)c2Cl)c(F)cc1Cl` [H-1, 5-Chloro-4-(4-chloro-2-fluoro-5-methoxyphenyl)-6-methoxypyrimidine], the melting point is 142 to 143 °C.
For `CCS(=O)(=O)Nc1cc(-c2ncnc(Cl)c2Cl)c(F)cc1C#N` [H-16, 4,5-Dichloro-6-[4-cyano-5-(ethylsulfonylamino)-2-fluorophenyl]pyrimidine], the melting point fell in the range of 149 to 150 °C.
The figure for `COC(=O)c1cc(-c2ncnc(C(F)F)c2Cl)c(F)cc1Cl` [D-41, 2-Chloro-4-fluoro-5-(5-chloro-6-difluoromethyl-pyrimidin-4-yl)benzoic acid methyl ester] is 100 to 101 °C; for `CCS(=O)(=O)Nc1cc(-c2ncnc(OC)c2Cl)c(F)cc1C#N` [H-7, 5-Chloro-4-[4-cyano-5-(ethylsulfonylamino)-2-fluorophenyl]-6-methoxypyrimidine] it is 149 to 150 °C; for `COc1cc(-c2ncnc(OC)c2C#N)c(F)cc1Cl` [K-1, 4-(4-Chloro-2-fluoro-5-methoxyphenyl)-5-cyano-6-methoxypyrimidine] it is 183 to 185 °C.
In turn, `CCS(=O)(=O)Nc1cc(-c2ncnc(OC)c2C#N)c(F)cc1C#N` [K-3, 4-(4-Cyano-5-ethylsulfonylamino-2-fluorophenyl)-5-cyano-6-methoxypyrimidine] yielded a melting point of 187 to 189 °C.
Regarding `CCS(=O)(=O)Nc1cc(-c2ncnc(C(F)F)c2Cl)c(F)cc1Cl` [D-14, 5-Chloro-4-(4-chloro-5-ethylsulfonylamino-2-fluoro-phenyl)-6-difluoromethylpyrimidine], the melting point lay within 138 to 139 °C.
For the compound `CCS(=O)(=O)N(C(C)=O)c1cc(-c2ncnc(C(F)(F)F)c2Cl)c(F)cc1C#N` [A-23, 4-[5-(N-acetyl-N-ethanesulfonylamino)-4-cyano-2-fluorophenyl]-5-chloro-6-trifluoromethylpyrimidine], the melting point was 144 to 146 °C.
With `Fc1cc(Cl)c(OC(F)F)cc1-c1ncnc(C(F)F)c1Cl` [D-7, 5-Chloro-4-[4-chloro-2-fluoro-5-(difluoromethoxy)phenyl]-6-difluoromethylpyrimidine], the melting point was 56 to 57 °C.
With `CC(=O)Nc1cc(-c2ncnc(C(F)F)c2Cl)c(F)cc1C#N` [D-21, 4-(5-Acetylamino-4-cyano-2-fluorophenyl)-5-chloro-6-difluoromethylpyrimidine], the melting point lay within 160 to 162 °C.
With `COc1cc(-c2ncnc(C(F)(F)F)c2C)c(F)cc1Cl` [J-5, 4-(4-Chloro-2-fluoro-5-methoxyphenyl)-5-methyl-6-trifluoromethylpyrimidine], the melting point fell in the range of 144 to 146 °C.
`CCS(=O)(=O)N(C(C)=O)c1cc(-c2ncnc(C(F)F)c2Cl)c(F)cc1C#N` [J-14, 4-[5-(N-acetyl-N-ethylsulfonylamino)-4-cyano-2-fluorophenyl]-5-chloro-6-difluoromethylpyrimidine] registered a melting point of 123 to 124 °C.
The figure for `C#CCOc1cc(-c2ncnc(C(F)(F)F)c2Cl)c(F)cc1Cl` [A-3, 5-Chloro-4-(4-chloro-2-fluoro-5-propargyloxyphenyl)-6-trifluoromethylpyrimidine] is 112 to 113 °C; for `COC1(F)C=C(Cl)C=CC1c1ncnc(C)c1C` (stereo not shown) [J-1, 4-(4-Chloro-2-fluoro-2-methoxyphenyl)-5,6-dimethyl-pyrimidine] it is 156 to 157 °C; for `C=CCOc1cc(-c2ncnc(C(F)F)c2Cl)c(F)cc1Cl` [D-2, 4-(5-Allyloxy-4-chloro-2-fluorophenyl)-5-chloro-6-difluoromethylpyrimidine] it is 69 to 71 °C and 67 to 71 °C.
Regarding `C#CCSc1cc(-c2ncnc(C(F)F)c2Cl)c(F)cc1Cl` [D-48, 5-Chloro-4-(4-chloro-2-fluoro-5-propargylthio-phenyl)-6-difluoromethylpyrimidine], the melting point is 95 to 97 °C.
With `CCS(=O)(=O)Nc1cc(-c2ncnc(C)c2Cl)c(F)cc1C#N` [E-10, 5-Chloro-4-[4-cyano-5-(ethylsulfonylamino)-2-fluoro-phenyl]-6-methylpyrimidine] the figure was 182 to 184 °C; with `COc1cc(-c2ncnc(C(F)(F)F)c2Cl)c(F)cc1Cl` [A-1, 5-chloro-4-(4-chloro-2-fluoro-5-methoxyphenyl)-6-trifluoromethylpyrimidine], 112 to 113 °C and 109 to 111 °C.
As to `CCS(=O)(=O)Nc1cc(C2(NC)NC=NC=C2Cl)c(F)cc1C#N` (stereo not shown) [H-20, 5-Chloro-6-[4-cyano-5-(ethylsulfonylamino)-2-fluoro-phenyl]-6-methylaminopyrimidine], the melting point lay in the range of 211 to 212 °C.
